Measured values published in patent US20240003914A1 (THE SCRIPPS RESEARCH INSTITUTE, priority 2020, published 2024).

Columns and labels:
C57BL/6 mice = assay: Whole blood NAD levels after oral treatment; assay type: in vivo, mouse; conditions: 6 mg/kg SR005 or 100 mg/kg NAM, normalized by baseline (FIG. 8)
From the text: Blood was collected and NAD detected as described in FIGS. 1A-1C. NAD values were normalized by baseline level for each mouse. Each line represents data for one mouse.

NADases = assay: NAD protection from degradation by NADases in brain homogenate; assay type: biochemical, mouse; conditions: inhibitor added to aliquots of a brain sample after homogenisation; duplicate samples (FIG. 1F)
Experimental: Brain homogenates are disrupted and clarified by sonication (0.5 second per cycle, 45 cycles, 50% power) followed by centrifugation at 12,000 rpm, RT for 5 minutes. Supernatants are collected and fractionated using Amicon Ultra-2 centrifugal units with a 30 kDa cut-off. Flow-through is collected and NAD is measured using a cycling assay (NAD+/NADH-GloTM (Promega). The NAD+/NADH-GloTM assay is a bioluminescent, homogeneous assay for the detection of total NAD metabolite levels comprising the oxidized and reduced forms of NAD (NAD+ and NADH, respectively). An NAD cycling enzyme is used to convert NAD+ to NADH. In the presence of NADH, the provided reductase enzyme reduces a proluciferin reductase substrate to form luciferin. Luciferin is then quantified using Ultra-Glo recombinant luciferase, and the light signal produced is proportional to the amount of NAD+ and NADH in the sample. Cycling between NAD+ and NADH by the NAD cycling enzyme and reductase increases assay sensitivity and provides selectivity for nonphosphorylated NAD+ and NADH compared to the phosphorylated forms NADP+ and NADPH. Reading is performed between 10 and 50 minutes during the linear increase of the signal in a luminescence reader. NAD values are normalized by total protein concentrations. […] Error bars of duplicate samples are shown. […] Error bars of duplicate samples are shown.

SMILES | blood NAD levels after treatment (C57BL/6 mice) | NAD protection from degradation by NADases (NADases)
NC(=O)c1cccnc1 [NAM, nicotinamide] | Increased blood NAD levels | –
O=c1cc(-c2ccc(O)cc2)oc2cc(O)cc(O)c12 [apigenin] | – | absence of protection
